In patent US9982005B2, “Macrolides and methods of their preparation and use” (President and Fellows of Harvard College, priority 2013, dated 2018):
In brackets after ≈: the same amount, converted by molar mass. Where two headings read alike, the source gives them in different places. Each block holds one compound with its values, some of them ahead of it.

Tests used:
Assay type in all cases: cell-based
[1] = tested on: S. aureus strains; assay: MIC against S. aureus strains (Table M7); settings: Staphylococcus aureus
How it was run: (§1)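 MICs were determined by broth dilution following CLSI standard procedures. Azithromycin served as the control macrolide.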

[2] = tested on: E. coli strains; assay: MIC against E. coli strains (Table M7); settings: Escherichia coli, ATCC25922, E. coli ATCC 25922
How it was run: as §1

[3] = tested on: K. pneumoniae strains; assay: MIC against K. pneumoniae strains (Table M8); settings: Klebsiella pneumoniae, K. pneumoniae 10031
[4] = tested on: SA557 S. aureus ermA unknown msrA positive; assay: broth dilution MIC, S. aureus SA557; settings: Staphylococcus aureus; SA557 S. aureus ermA unknown msrA positive; read-out: MIC
Description: (§2) We have collected MIC data for a total of 50 novel macrolides that this platform has produced against over 21 unique strains of B. subtilis, E. coli, S. aureus, S. pneumoniae, and H. influenzae, including several multidrug-resistant strains, with a special focus on macrolide resistant mechanisms (vide supra). Azithromycin was included as a control macrolide. CLSI standard procedures for broth dilution MIC determination were used. […] These genotypes can be constitutive or inducible. The finding that C4-epi (unnatural) isomers of the “azaketolide” macrolide class have enhanced activities relative to C4 natural isomers is very exciting.

[5] = tested on: EC882 E. coli imp; assay: broth dilution MIC, E. coli EC882; settings: Escherichia coli
How it was run: as §1

[6] = tested on: SA101 S. aureus ATCC29213; assay: broth dilution MIC, S. aureus SA101; settings: Staphylococcus aureus, ATCC29213, SA101 S. aureus ATCC29213; read-out: MIC
How it was run: as §1

[7] = tested on: EC878 E. coli tolC; assay: broth dilution MIC, E. coli EC878; settings: Escherichia coli
How it was run: as §1

[8] = tested on: SA183 S. aureus ermA positive msrA unknown; assay: broth dilution MIC, S. aureus SA183; settings: Staphylococcus aureus
Description: as §2

[9] = tested on: BS1725 B. subtilis ermC; assay: broth dilution MIC, B. subtilis BS1725; settings: Bacillus subtilis, BS1725 B. subtilis ermC (+ery)
How it was run: as §1

[10] = tested on: HI281 H. influenzae; assay: broth dilution MIC, H. influenzae HI281; settings: Haemophilus influenzae
Description: as §2

[11] = tested on: SA506 S. aureus ermA positive msrA unknown; assay: broth dilution MIC, S. aureus SA506; settings: Staphylococcus aureus
Description: as §2

[12] = tested on: EC107 E. coli ATCC25922; assay: broth dilution MIC, E. coli EC107; settings: Escherichia coli, read-out: MIC
How it was run: as §1

[13] = tested on: Spn1509 S. pneumoniae ermB positive mefA negative; assay: broth dilution MIC, S. pneumoniae Spn1509; settings: Streptococcus pneumoniae; Spn1509 S. pneumoniae ermB positive mefA negative; read-out: MIC
Description: as §2

[14] = tested on: E. faecalis strains; assay: MIC against E. faecalis strains (Table M8); settings: Enterococcus faecalis, E. faecalis 29212
[15] = tested on: S. pneumoniae strains; assay: MIC against S. pneumoniae strains (Tables M7, M8); settings: Streptococcus pneumoniae
Description: CLSI standard procedures for broth dilution MIC determination were used. […] These genotypes can be constitutive or inducible.

[16] = tested on: Spn1537 S. pneumoniae ermB positive mefA positive; assay: broth dilution MIC, S. pneumoniae Spn1537; settings: Streptococcus pneumoniae
Description: as §2

[17] = tested on: Spn160 S. pneumoniae ermB unknown mefA positive; assay: broth dilution MIC, S. pneumoniae Spn160; settings: Streptococcus pneumoniae
Description: as §2

[18] = tested on: H. influenzae strains; assay: MIC against H. influenzae strains (Table M8); settings: Haemophilus influenzae
How it was run: as §1

[19] = tested on: SA418 S. aureus ermA negative msrA positive; assay: broth dilution MIC, S. aureus SA418; settings: Staphylococcus aureus
Description: as §2

[20] = tested on: HI175 H. influenzae ATCC49247; assay: broth dilution MIC, H. influenzae HI175; settings: Haemophilus influenzae
Description: as §2

[21] = tested on: Spn1533 S. pneumoniae ermB positive mefA positive; assay: broth dilution MIC, S. pneumoniae Spn1533; settings: Streptococcus pneumoniae
Description: as §2

[22] = tested on: A. baumannii strains; assay: MIC against A. baumannii strains (Table M8); settings: Acinetobacter baumannii, BAA747, A. baumannii BAA747-1
[23] = tested on: BS1723 B. subtilis BS168 WT wild type; assay: broth dilution MIC, B. subtilis BS1723; settings: Bacillus subtilis, BS1723 B. subtilis BS168 WT wild type; read-out: MIC
How it was run: as §1

[24] = tested on: SA1708 S. aureus ermA positive msrA negative; assay: broth dilution MIC, S. aureus SA1708; settings: Staphylococcus aureus
Description: as §2

[25] = tested on: Spn 106 S. pneumonia ATCC49619; assay: broth dilution MIC, S. pneumoniae Spn 106; settings: Streptococcus pneumoniae
Description: as §2

[26] = tested on: SA1707 S. aureus ermA negative msrA positive; assay: broth dilution MIC, S. aureus SA1707; settings: Staphylococcus aureus
Description: as §2

[27] = tested on: Spn1427 S. pneumoniae ermB positive mefA negative; assay: broth dilution MIC, S. pneumoniae Spn1427; settings: Streptococcus pneumoniae
Description: as §2

[28] = tested on: E. coli (MC4100); assay: MIC, E. coli MC4100; settings: Escherichia coli, round 1, read-out: MIC
Description: as §2

[29] = tested on: S. aureus (Newman, clinical isolate); assay: MIC, S. aureus Newman; settings: Staphylococcus aureus, S. aureus (Newman, clinical isolate), round 1
Description: as §2

[30] = ATCC29213, S. aureus ATCC 29213, read-out: MIC S. aureus (ATCC 29213)
[31] = S. aureus 506, read-out: MIC S. aureus (506)
[32] = S. aureus 1708, read-out: MIC S. aureus (1708)
[33] = USA300, S. aureus USA300, read-out: MIC S. aureus (USA300)
[34] = S. pneumoniae 1509, read-out: MIC S. pneumoniae (1509)
[35] = S. pneumoniae 1533, read-out: MIC S. pneumoniae (1533)
[36] = S. pneumoniae 1537, read-out: MIC S. pneumoniae (1537)
[37] = Spn160 S. pneumoniae ermB unknown mefA positive, read-out: MIC
[38] = H. influenzae 49247, read-out: MIC H. influenzae (49247)
[39] = H. influenzae 49766, read-out: MIC H. influenzae (49766)
[40] = Spn 106 S. pneumonia ATCC49619, read-out: MIC

Structure (SMILES): CC[C@H]1OC(=O)[C@H](C)C(=O)[C@H](C)[C@@H](O[C@@H]2OC(C)CC(N(C)C)C2O)[C@](C)(OC)C[C@@H](C)CN[C@H](C)[C@H]2N(CCCCn3cc(-c4cccc(N)n4)nn3)C(=O)O[C@]12C (stereo partly shown) [FSM-20715]
MIC [1, 30]: 1 µg/mL (≈ 1.21 µM)
MIC [1, 31]: > 32 µg/mL
MIC [1, 32]: 2 µg/mL (≈ 2.41 µM)
MIC [1, 33]: 2 µg/mL (≈ 2.41 µM)
MIC [2]: 8 µg/mL (≈ 9.65 µM)
MIC [3]: 2 µg/mL (≈ 2.41 µM)
MIC [4]: 1 µg/mL (≈ 1.21 µM)
MIC [5]: 0.0312 µg/mL (≈ 0.0376 µM)
MIC [6]: 1 to 2 µg/mL (≈ 1.21 to 2.41 µM)
MIC [7]: 0.5 µg/mL (≈ 0.603 µM)
MIC [8]: > 32 µg/mL
MIC [9]: 16 µg/mL (≈ 19.3 µM)
MIC [10]: 4 µg/mL (≈ 4.82 µM)
MIC [11]: > 32 µg/mL
MIC [12]: 4 µg/mL (≈ 4.82 µM)
MIC [13]: 0.5 to 2 µg/mL (≈ 0.603 to 2.41 µM)
MIC [14]: 0.25 µg/mL (≈ 0.302 µM)
MIC ([15]; S. pneumoniae 160, read-out: MIC S. pneumonae (160)): 0.25 µg/mL (≈ 0.302 µM)
MIC [15, 34]: 2 µg/mL (≈ 2.41 µM)
MIC [15, 35]: > 32 µg/mL
MIC [15, 36]: > 32 µg/mL
MIC ([15]; S. pneumoniae 49619, read-out: MIC S. pneumoniae (49619)): 0.125 µg/mL (≈ 0.151 µM)
MIC [16]: > 32 µg/mL
MIC [17, 37]: 0.125 to 0.25 µg/mL (≈ 0.151 to 0.302 µM)
MIC [18, 38]: 0.5 µg/mL (≈ 0.603 µM)
MIC [18, 39]: 2 µg/mL (≈ 2.41 µM)
MIC [19]: 2 µg/mL (≈ 2.41 µM)
MIC [20]: 2 µg/mL (≈ 2.41 µM)
MIC [21]: > 32 µg/mL
MIC [22]: 8 µg/mL (≈ 9.65 µM)
MIC [23]: 1 µg/mL (≈ 1.21 µM)
MIC [24]: 2 µg/mL (≈ 2.41 µM)
MIC ([25]; ATCC49619): 0.0156 to 0.0312 µg/mL (≈ 0.0188 to 0.0376 µM)
MIC [26]: 2 µg/mL (≈ 2.41 µM)

Structure (SMILES): CC[C@H]1OC(=O)C(C)(F)C(=O)[C@H](C)[C@@H](O[C@@H]2OC(C)CC(N(C)C)C2O)[C@](C)(OC)C[C@@H](C)CN[C@H](C)[C@H]2N(CCCCn3cc(-c4ccccn4)nn3)C(=O)O[C@]12C (stereo partly shown) [FSM-20738]
MIC [1, 30]: 0.5 µg/mL (≈ 0.601 µM)
MIC [1, 31]: > 32 µg/mL
MIC [1, 32]: 0.5 µg/mL (≈ 0.601 µM)
MIC [1, 33]: 1 µg/mL (≈ 1.2 µM)
MIC [2]: 8 µg/mL (≈ 9.62 µM)
MIC [27]: > 32 µg/mL
MIC [3]: 4 µg/mL (≈ 4.81 µM)
MIC [4]: 1 µg/mL (≈ 1.2 µM)
MIC [5]: 0.0625 µg/mL (≈ 0.0751 µM)
MIC [6]: 0.5 to 1 µg/mL (≈ 0.601 to 1.2 µM)
MIC [7]: 1 µg/mL (≈ 1.2 µM)
MIC [8]: > 32 µg/mL
MIC [9]: 4 µg/mL (≈ 4.81 µM)
MIC [10]: 4 to 32 µg/mL (≈ 4.81 to 38.5 µM)
MIC [11]: > 32 µg/mL
MIC [12]: 8 µg/mL (≈ 9.62 µM)
MIC [13]: 0.5 to 8 µg/mL (≈ 0.601 to 9.62 µM)
MIC [28]: 8 µg/mL (≈ 9.62 µM)
MIC [14]: 0.125 µg/mL (≈ 0.15 µM)
MIC [15, 34]: 2 µg/mL (≈ 2.4 µM)
MIC [15, 35]: > 32 µg/mL
MIC [15, 36]: > 32 µg/mL
MIC ([15]; read-out: MIC S. pneumonae (160)): ≤ 0.0625 µg/mL
MIC ([15]; read-out: MIC S. pneumoniae (49619)): ≤ 0.0625 µg/mL
MIC [16]: > 32 µg/mL
MIC [17]: 0.0625 to 1 µg/mL (≈ 0.0751 to 1.2 µM)
MIC [18, 38]: 0.5 µg/mL (≈ 0.601 µM)
MIC [18, 39]: 4 µg/mL (≈ 4.81 µM)
MIC [19]: 1 µg/mL (≈ 1.2 µM)
MIC [20]: 0.5 to 8 µg/mL (≈ 0.601 to 9.62 µM)
MIC [22]: 32 µg/mL (≈ 38.5 µM)
MIC [23]: 0.25 µg/mL (≈ 0.3 µM)
MIC [24]: 2 µg/mL (≈ 2.4 µM)
MIC [29]: 1 µg/mL (≈ 1.2 µM)
MIC [25, 40]: 0.0156 to 0.25 µg/mL (≈ 0.0187 to 0.3 µM)
MIC [26]: 1 µg/mL (≈ 1.2 µM)

MIC [27]: > 32 µg/mL
MIC [4]: > 32 µg/mL
MIC [6]: > 32 µg/mL
MIC [8]: > 32 µg/mL
MIC [10]: 32 µg/mL (≈ 39.3 µM)
MIC [11]: > 32 µg/mL
MIC [13]: > 32 µg/mL
MIC [16]: > 32 µg/mL
MIC [17, 37]: > 32 µg/mL
MIC [19]: > 32 µg/mL
MIC [20]: > 32 µg/mL
MIC [21]: > 32 µg/mL
MIC [24]: > 32 µg/mL
MIC [25, 40]: 32 µg/mL (≈ 39.3 µM)
MIC [26]: > 32 µg/mL
Structure (SMILES): CC[C@H]1OC(=O)[C@H](C)C(=O)C[C@@H](O[C@@H]2OC(C)CC(N(C)C)C2O)[C@](C)(OC)C[C@@H](C)C(=O)N[C@H](C)[C@H]2N(CCCCn3cc(-c4ccccn4)nn3)C(=O)O[C@]12C (stereo partly shown) [FSM-20739]
